Laboratory results: patent US6525059B1, “Substituted pyrazoles as p38 kinase inhibitors” (G. D. Searle & Company, priority 1998, dated 2003)

Key:
[1] = target: T1, human GST-p38 kinase alpha (Homo sapiens, UniProt Q16539); assay: p38 kinase in vitro assay, second format, phosphorylation of EGFRP with 33P-ATP; type: biochemical; conditions: Table 10, 10% DMSO; @ 1.0 hour; read-out: p38α Kinase Assay IC50
T1 construct: The coding region of the human p38a cDNA was obtained by PCR-amplification from RNA isolated from the human monocyte cell line THP.1; made in house; host or cells: E. coli DH10B
Outline: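 Activated human GST-p38α (pre-activated with GST-MKK6, 1 h, 30 °C) phosphorylates EGFR 21-mer peptide (200 μM) with 50 μM ATP plus γ-33P-ATP, pH 7.5, 60 min at room temperature. Unreacted ATP removed by AG 1×8 resin; supernatant scintillation-counted.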

TNF-α [2] = assay: Rat assay: LPS-challenged rats, serum TNF-α by ELISA; type: in vivo; conditions: Rattus norvegicus, po; for inhibition in vivo at 5 mg/kg: Table 10, dose 5.0 mg/kg; for inhibition in vivo at 20 mg/kg: Table 10, dose 20.0 mg/kg
TNF-α [3] = assay: LPS stimulation of TNF production by U937 cells; type: cell-based, human; conditions: Homo sapiens, U-937, LPS-stimulated U937 cells; read-out: U937 Cell Assay IC50
Outline: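 PMA-differentiated human U937 cells (20 ng/ml PMA, 24 h, then 24-48 h rest) at 2 million cells/ml, 0.1% DMSO final, stimulated with E. coli LPS (100 ng/ml final) for 4 h at 37° C. TNF-α in medium measured by ELISA; IC50 in μM.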

human p38 kinase alpha = target: T2, human p38 kinase alpha (Homo sapiens, UniProt Q16539); assay: p38 kinase in vitro assay, phosphorylation of biotinylated PHAS-I with gamma 32P-ATP; type: biochemical; conditions: activated human p38 kinase alpha, PHAS-I substrate, 50 μM unlabeled ATP; read-out: p38 kinase IC50
T2 construct: The coding region of the human p38a cDNA was obtained by PCR-amplification from RNA isolated from the human monocyte cell line THP.1; GST (N); made in house; host or cells: E. coli DH10B
Outline: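 MKK6-activated human p38α phosphorylates biotinylated PHAS-I with γ-32P-ATP in 25 mM HEPES pH 7.5, 10 mM Mg acetate, 50 μM unlabeled ATP, 1% DMSO, 30 °C for 1 h or overnight. Compounds at 100–0.001 μM (10-fold steps, triplicate); substrate captured on streptavidin filter plates and counted by scintillation.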

human TNF = assay: TNF inhibition: human whole blood assay; type: cell-based; conditions: Homo sapiens, Table 10, human whole blood, LPS; read-out: TNF Inhibition-Human Whole Blood Assay
[4] = read-out: Rat LPS Assay % Inhibition

T1 sequence (Q16539 whole entry): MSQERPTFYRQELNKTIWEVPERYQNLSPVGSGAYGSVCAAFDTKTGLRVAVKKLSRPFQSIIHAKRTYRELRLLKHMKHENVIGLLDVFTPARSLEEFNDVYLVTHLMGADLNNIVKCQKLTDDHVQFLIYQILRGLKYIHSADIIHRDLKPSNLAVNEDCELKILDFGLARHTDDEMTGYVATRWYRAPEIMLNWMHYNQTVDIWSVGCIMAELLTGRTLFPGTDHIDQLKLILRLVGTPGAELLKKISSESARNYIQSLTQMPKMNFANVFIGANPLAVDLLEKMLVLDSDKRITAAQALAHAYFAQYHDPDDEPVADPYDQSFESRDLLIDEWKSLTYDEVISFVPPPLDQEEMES
T2 sequence (Q16539 whole entry): as above

IC50 [1] [µM] | melting point | Compound | further results
 | 265 to 267 °C | Fc1ccc(-c2[nH]nc(-c3ccccc3)c2-c2ccncc2)cc1 [Example A-21, 4-[5-(4-fluorophenyl)-3-phenyl-1H-pyrazol-4-yl]pyridine] | IC50 (TNF-α [3]): 0.077 µM
29.7 | 126.5 to 126.6 °C | Cc1ccccc1C(=O)C(=C1SCS1)c1ccncc1 [Example A-392] | 
2.32 | 159.6 to 159.7 °C | O=C(C(=C1SCS1)c1ccncc1)c1cccc(Br)c1 [Example A-393] | 
30 | 191.5 to 192.5 °C | COc1ccc(C(=O)C(=C2SCS2)c2ccncc2)cc1Cl [Example A-397] | 
22.9 | 203 to 204.1 °C | COc1ccc(C(=O)C(=C2SCS2)c2ccncc2)cc1 [Example A-399] | 
28.9 | 197.3 to 202.2 °C | CN(C)c1ccc(C(=O)C(=C2SCS2)c2ccncc2)cc1 [Example A-402] | 
 | 212.6 to 213.7 °C | CN1CCN(c2n[nH]c(-c3cccc(C(F)(F)F)c3)c2-c2ccncc2)CC1 [Example A-424] | 
 | 240.5 °C (dec.) | CN1CCN(c2n[nH]c(-c3ccc(C(F)(F)F)cc3)c2-c2ccncc2)CC1 [Example A-425] | 
56.3 | 195.4 to 196.8 °C | COC(=O)CNc1[nH]nc(-c2ccc(Cl)cc2)c1-c1ccncc1 [Example A-429] | 
 | 95.5 to 97.3 °C | O=C(Cc1ccncc1)c1ccc(Cl)cc1 [Example A-431] | 
 | 80.2 to 82.1 °C | CSC(SC)=C(C(=O)c1ccc(F)cc1)c1ccncc1 [Example A-432] | 
10.2 | 266.3 to 268.9 °C | Sc1[nH]nc(-c2ccc(Cl)cc2)c1-c1ccncc1 [Example A-453] | 
21.4 | 241.9 to 242 °C | COc1ccc(CS(=O)(=O)c2[nH]nc(-c3ccc(F)cc3)c2-c2ccncc2)cc1 [Example A-467] | 
 | 284.3 to 284.4 °C | Cc1ccc(S(=O)(=O)Nc2[nH]nc(-c3ccc(Cl)cc3)c2-c2ccncc2)cc1 [Example A-484] | 

More lines, now with the values behind:

Compound | IC50 [1] [µM] | melting point | further results
Cc1cccc(-c2n[nH]c(N3CCN(C)CC3)c2-c2ccncc2)c1 [A-389, Step 4] | 0.16 | 261.9 to 262 °C | inhibition in vivo at 5 mg/kg (TNF-α [2]; [4]): 55%; inhibition in vivo at 20 mg/kg (TNF-α [2]): 94%
Fc1ccc(-c2[nH]nc(Nc3ccccc3)c2-c2ccncc2)cc1 [Example A-20, 5-(4-Fluorophenyl)-N-phenyl-4-(4-pyridinyl)-1H-pyrazol-3-amine] |  | 218 to 219 °C | IC50 (TNF-α [3]): 1.09 µM
Fc1ccc(-c2n[nH]c(-c3ccncc3)c2-c2ccncc2)cc1 [Example A-23, 4-[3-(4-fluorophenyl)-4-(4-pyridinyl)-1H-pyrazol-5-yl]pyridine] |  | 304 °C | IC50 (human p38 kinase alpha): 1.5 µM
Cc1ccc(C(=O)C(=C2SCS2)c2ccncc2)cc1C [Example A-394] | 9.11 | 198.8 to 198.9 °C | 
Cc1ccc(-c2n[nH]c(N3CCN(C)CC3)c2-c2ccncc2)cc1C [Example A-410, 1-[5-(3,4-dimethylphenyl)-4-(4-pyridinyl)-1H-pyrazol-3-yl]-4-methylpiperazine] | 0.21 | 270.9 to 272.7 °C | inhibition in vivo at 5 mg/kg (TNF-α [2]; [4]): 11%; inhibition in vivo at 20 mg/kg (TNF-α [2]): 0%
CN1CCN(c2[nH]nc(-c3ccc(OC(F)(F)F)cc3)c2-c2ccncc2)CC1 [Example A-411, 1-[5-(4-trifluoromethoxyphenyl)-4-(4-pyridinyl)-1H-pyrazol-3-yl]-4-methylpiperazine] | 3.37 | 221 to 221.2 °C | inhibition in vivo at 5 mg/kg (TNF-α [2]; [4]): 40%; inhibition in vivo at 20 mg/kg (TNF-α [2]): 0%
CN1CCN(c2n[nH]c(-c3ccc(C#N)cc3)c2-c2ccncc2)CC1 [Example A-412, 1-[5-(4-cyanophenyl)-4-(4-pyridinyl)-1H-pyrazol-3-yl]-4-methylpiperazine] | 2.15 | > 300 °C | inhibition in vivo at 5 mg/kg (TNF-α [2]; [4]): 0%; inhibition in vivo at 20 mg/kg (TNF-α [2]): 0%
C=Cc1ccc(-c2[nH]nc(N3CCN(C)CC3)c2-c2ccncc2)cc1 [Example A-418, 1-[5-(4-ethenylphenyl)-4-(4-pyridinyl)-1H-pyrazol-3-yl]-4-methylpiperazine] | 0.12 | > 300 °C | 
CCc1ccc(-c2[nH]nc(N3CCN(C)CC3)c2-c2ccncc2)cc1 [Example A-419, 1-[5-(4-ethylphenyl)-4-(4-pyridinyl)-1H-pyrazol-3-yl]-4-methylpiperazine] | 1.31 | 221.6 to 222.6 °C | inhibition in vivo at 5 mg/kg (TNF-α [2]; [4]): 24%; inhibition in vivo at 10 mg/kg (TNF-α [2]; Table 10, dose 10.0 mg/kg): 58%
Cc1cc(-c2[nH]nc(N3CCN(C)CC3)c2-c2ccncc2)ccc1Br [Example A-420, 1-[5-(4-bromo-3-methylphenyl)-4-(4-pyrdinyl)-1H-pyrazol-3-yl]-4-methylpiperazine] | 0.32 | 294.7 °C (dec.) | inhibition in vivo at 5 mg/kg (TNF-α [2]; [4]): 47%; inhibition in vivo at 20 mg/kg (TNF-α [2]): 91%
CN1CCN(c2n[nH]c(-c3cccc(C#N)c3)c2-c2ccncc2)CC1 [Example A-422, 1-[5-(3-cyanophenyl)-4-(4-pyrdinyl)-1H-pyrazol-3-yl]4-methylpiperazine] |  | 223.4 to 224.3 °C | 
CSc1ccc(-c2[nH]nc(N3CCN(C)CC3)c2-c2ccncc2)cc1 [Example A-423, 1-[5-(4-thiomethoxyphenyl)-4-(4-pyridinyl)-1H-pyrazol-3-yl]-4-methylpiperazine] |  | 275.6 to 281.9 °C | 
CN1CCN(c2n[nH]c(-c3cccs3)c2-c2ccncc2)CC1 [Example A-426] |  | 199.7 °C (dec.) | 
O=C(O)CNc1[nH]nc(-c2ccc(Cl)cc2)c1-c1ccncc1.[Li+] [Example A-430] | > 100 | > 300 °C | 
CSC(SC)=C(C(=O)c1ccc(Cl)cc1)c1ccncc1 [Example A-433] |  | 87.6 to 88.2 °C | 
CSc1[nH]nc(-c2ccc(F)cc2)c1-c1ccncc1 [Example A-434] | 5.84 | 249.9 °C | 
Clc1ccc(-c2n[nH]c(OCCN3CCOCC3)c2-c2ccncc2)cc1 [Example A-440] |  | 198.9 to 199.9 °C | 
COc1ccc(COc2[nH]nc(-c3ccc(Cl)cc3)c2-c2ccncc2)cc1 [Example A-444] | 6.99 | 229.1 to 229.2 °C | 
COc1ccc(CSC(SCc2ccc(OC)cc2)=C(C(=O)c2ccc(F)cc2)c2ccncc2)cc1 [Example A-450] | > 100 | 118.5 to 120.6 °C | 
Fc1ccc(-c2n[nH]c(S)c2-c2ccncc2)cc1 [Example A-454] | 8.41 | 261.3 to 263.9 °C | 
CC(C)(C)OC(=O)N1CCC([S+]([O-])c2[nH]nc(-c3ccc(Cl)cc3)c2-c2ccncc2)CC1 (stereo not drawn) [Example A-464] | > 100 | 215.8 to 215.9 °C | 
CC(C)(C)OC(=O)N1CCC(S(=O)(=O)c2[nH]nc(-c3ccc(Cl)cc3)c2-c2ccncc2)CC1 [Example A-465] | > 100 | 228 to 230.8 °C | 
COc1ccc(C[S+]([O-])c2[nH]nc(-c3ccc(F)cc3)c2-c2ccncc2)cc1 (stereo not drawn) [Example A-466] | 20.1 | 189.5 °C | 
CN1CCC(Sc2[nH]nc(-c3ccc(Cl)cc3)c2-c2ccncc2)CC1 [Example A-468, 3-(4-chlorophenyl)-5-[(1-methylpiperidin-4-yl)-thio]-4-pyridin-4-yl-1H-pyrazole] | 0.3 | 227.7 °C | inhibition in vivo at 1 mg/kg (TNF-α [2]; Table 10, dose 1.0 mg/kg, read-out: Rat LPS Assay % Inhibition): 46%; inhibition in vivo at 5 mg/kg (TNF-α [2]; [4]): 50%; inhibition in vivo at 20 mg/kg (TNF-α [2]): 94%
Clc1ccc(-c2n[nH]c(SCc3nc4ccccc4[nH]3)c2-c2ccncc2)cc1 [Example A-470] | 10.4 | 257.7 °C | 
O=C1OCCC1CSc1[nH]nc(-c2ccc(Cl)cc2)c1-c1ccncc1 (stereo not drawn) [Example A-472] |  | 224.2 to 225.9 °C | IC50 (human TNF): > 25 µM
CC(C#N)Sc1[nH]nc(-c2ccc(Cl)cc2)c1-c1ccncc1 (stereo not drawn) [Example A-477] | 0.34 | 211.1 to 212.8 °C | 
NCCSc1[nH]nc(-c2ccc(Cl)cc2)c1-c1ccncc1 [Example A-480] |  | 186.8 to 187.8 °C | IC50 (human TNF): 0.16 µM
CN1CCN(c2[nH]nc(C3CCCCC3)c2-c2ccncc2)CC1 [Example A-485, 1-[cyclohexyl-4-(4-pyridinyl)-1H-pyrazol-3-yl]-4-methylpiperazine] |  | > 300 °C (dec.) | 
